Reference: US20240368214A1, “POSITIVE NMDA-MODULATING COMPOUNDS AND METHODS OF USE THEREOF” (SAGE THERAPEUTICS, INC., priority 2021, published 2024)
Where two headings read alike, the source gives them in different places.

Molecular target: T1, recombinant human GluN1/GluN2A receptor (Homo sapiens, UniProt Q05586+Q12879)
T1 construct: expressed in transfected cells; host or cells: HEK293, tetracycline-inducible expression
Assay: Whole-cell patch clamp of mammalian cells (Syncropatch 384i), NMDA modulation
Format: cell-based
Conditions: HEK293 cells, human GluN1/GluN2A, glutamate 1 μM / glycine 100 μM, -80 mV, peak amplitude increase; for EC50: read-out: EC50
Summary of the method: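 Modulation read as fold rise in peak current, (Icomp/Icontrol)−1, from 8 concentrations with ≥2 wells each, four-parameter fit. Compound pre-incubated 120 s then co-applied with 1 μM glutamate plus 100 μM glycine; tetracycline-inducible HEK293 GluN1/GluN2A cells clamped at −80 mV.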

T1 sequence (Q12879 23-1464, other chains not shown): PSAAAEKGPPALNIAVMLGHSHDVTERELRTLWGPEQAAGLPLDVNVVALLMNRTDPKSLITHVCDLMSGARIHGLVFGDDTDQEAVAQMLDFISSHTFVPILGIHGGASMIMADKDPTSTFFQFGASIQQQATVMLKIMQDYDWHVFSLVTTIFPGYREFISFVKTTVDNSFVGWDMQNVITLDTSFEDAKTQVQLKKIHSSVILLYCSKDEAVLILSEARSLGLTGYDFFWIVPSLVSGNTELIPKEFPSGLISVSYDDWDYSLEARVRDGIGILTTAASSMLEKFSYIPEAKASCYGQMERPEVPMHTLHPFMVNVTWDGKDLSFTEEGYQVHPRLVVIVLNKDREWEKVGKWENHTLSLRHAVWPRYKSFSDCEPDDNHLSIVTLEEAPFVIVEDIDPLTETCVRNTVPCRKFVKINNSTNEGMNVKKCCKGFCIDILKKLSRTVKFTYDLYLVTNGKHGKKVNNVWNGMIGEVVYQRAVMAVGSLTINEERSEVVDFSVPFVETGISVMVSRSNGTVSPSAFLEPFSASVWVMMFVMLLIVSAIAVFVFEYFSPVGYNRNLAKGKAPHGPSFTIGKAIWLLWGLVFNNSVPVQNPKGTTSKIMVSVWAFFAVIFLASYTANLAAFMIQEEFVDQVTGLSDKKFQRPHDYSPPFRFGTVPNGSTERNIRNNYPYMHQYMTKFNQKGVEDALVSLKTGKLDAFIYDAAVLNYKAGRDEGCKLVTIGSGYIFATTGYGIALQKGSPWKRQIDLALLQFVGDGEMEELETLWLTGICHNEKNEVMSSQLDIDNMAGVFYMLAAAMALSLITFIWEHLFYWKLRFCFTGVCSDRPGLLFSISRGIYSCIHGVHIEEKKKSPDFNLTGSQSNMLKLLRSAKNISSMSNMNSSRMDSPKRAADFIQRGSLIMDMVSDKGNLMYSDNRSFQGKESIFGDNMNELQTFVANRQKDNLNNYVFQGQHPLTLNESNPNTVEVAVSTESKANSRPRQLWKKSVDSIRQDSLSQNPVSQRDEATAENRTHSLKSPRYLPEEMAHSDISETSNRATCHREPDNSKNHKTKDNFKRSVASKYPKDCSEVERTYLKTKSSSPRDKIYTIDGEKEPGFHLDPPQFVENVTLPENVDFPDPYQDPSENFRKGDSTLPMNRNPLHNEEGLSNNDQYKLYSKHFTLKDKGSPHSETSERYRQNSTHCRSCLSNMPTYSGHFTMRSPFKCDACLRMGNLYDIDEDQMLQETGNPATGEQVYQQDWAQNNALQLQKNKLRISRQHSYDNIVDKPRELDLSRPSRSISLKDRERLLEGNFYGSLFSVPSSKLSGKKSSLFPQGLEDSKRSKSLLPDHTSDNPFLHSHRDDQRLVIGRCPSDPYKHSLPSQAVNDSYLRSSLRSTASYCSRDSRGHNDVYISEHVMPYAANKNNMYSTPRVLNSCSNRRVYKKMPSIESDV

Compound	Emax (Table H-2)	EC50 (Table H-2)	Emax (Table G-2)	EC50 (Table G-2)
CC[C@]1(O)CC[C@@]2(CC)[C@@H](CC[C@H]3[C@@H]4CC[C@H]([C@H](C)CC[C@@](C)(O)C(F)(F)F)[C@@]4(C)CC[C@@H]32)C1 [Compound G-4, (3S,5S,8S,9S,10S,13R,14S,17R)-3,10-diethyl-13-methyl-17-((2R,5R)-6,6,6-trifluoro-5-hydroxy-5-methylhexan-2-yl)hexadecahydro-1H-cyclopenta[a]phenanthren-3-ol]	–	–	100 to 200%	100 to 500 nM
CC[C@]1(O)CC[C@@]2(CC)[C@@H](CC[C@H]3[C@@H]4CC[C@H]([C@H](C)CC[C@](C)(O)C(F)(F)F)[C@@]4(C)CC[C@@H]32)C1 [Compound G-5, (3S,5S,8S,9S,10S,13R,14S,17R)-3,10-diethyl-13-methyl-17-((2R,5S)-6,6,6-trifluoro-5-hydroxy-5-methylhexan-2-yl)hexadecahydro-1H-cyclopenta[a]phenanthren-3-ol]	–	–	> 200%	1 to 100 nM
C[C@H](CC[C@](C)(O)C(F)(F)F)[C@H]1CCC[C@H]2[C@@H]3CC=C4C[C@@](C)(O)CC[C@]4(C)[C@H]3CC[C@]12C [Compound H-1, (2S,4aR,4bS,6aR,7R,10aS,10bS)-2,4a,6a-trimethyl-7-((2R,5S)-6,6,6-trifluoro-5-hydroxy-5-methylhexan-2-yl)-1,2,3,4,4a,4b,5,6,6a,7,8,9,10,10a,10b,11-hexadecahydrochrysen-2-ol]	100 to 200%	500 to 1000 nM	–	–
C[C@H](CCC1(O)CCC(C)(C)CC1)[C@H]1CCC[C@H]2[C@@H]3CC[C@H]4C[C@](O)(C(F)(F)F)CC[C@]4(C)[C@H]3CC[C@]12C [Compound H-3, (2S,4aS,4bS,6aR,7R,10aS,10bR,12aS)-7-((R)-4-(1-hydroxy-4,4-dimethylcyclohexyl)butan-2-yl)-4a,6a-dimethyl-2 (trifluoromethyl)octadecahydrochrysen-2-ol]	–	> 1000 nM	–	–
CC[C@]1(O)CC[C@@]2(C)[C@@H](CC[C@@H]3[C@@H]2CC[C@]2(C)[C@@H]([C@H](C)CCCC(C)(C)O)CCC[C@@H]32)C1 [Compound H-4, (2S,4aS,4bS,6aR,7R,10aS,10bR,12aS)-2-ethyl-7-((R)-6-hydroxy-6-methylheptan-2-yl)-4a,6a-dimethyloctadecahydrochrysen-2-ol]	100 to 200%	100 to 500 nM	–	–

The next lines start with results.

Emax (Table H-2)	EC50 (Table H-2)	Compound	Emax (Table G-2)	EC50 (Table G-2)
–	100 to 500 nM	CC[C@]1(O)CC[C@@]2(C)C(=CC[C@H]3[C@@H]4CCC[C@H]([C@H](C)CC[C@H](O)C(C)C)[C@@]4(C)CC[C@@H]32)C1 [Compound H-5, (2S,4aR,4bS,6aR,7R,10aS,10bS)-2-ethyl-7-((2R,5S)-5-hydroxy-6-methylheptan-2-yl)-4a,6a-dimethyl-1,2,3,4,4a,4b,5,6,6a,7,8,9,10,10a,10b,11-hexadecahydrochrysen-2-ol]	–	–
< 100%	1 to 100 nM	CC[C@]1(O)CC[C@@]2(C)C(=CC[C@H]3[C@@H]4CCC[C@H]([C@H](C)CC[C@@H](O)C(C)C)[C@@]4(C)CC[C@@H]32)C1 [Compound H-6, (2S,4aR,4bS,6aR,7R,10aS,10bS)-2-ethyl-7-((2R,5R)-5-hydroxy-6-methylheptan-2-yl)-4a,6a-dimethyl-1,2,3,4,4a,4b,5,6,6a,7,8,9,10,10a,10b,11-hexadecahydrochrysen-2-ol]	–	–
–	100 to 500 nM	CC(C)[C@@H](O)CC[C@@H](C)[C@H]1CCC[C@H]2[C@@H]3CC=C4C[C@@](C)(O)CC[C@]4(C)[C@H]3CC[C@]12C [Compound H-7, (2S,4aR,4bS,6aR,7R,10aS,10bS)-7-((2R,5S)-5-hydroxy-6-methylheptan-2-yl)-2,4a,6a-trimethyl-1,2,3,4,4a,4b,5,6,6a, 7,8,9,10,10a, 10b,11-hexadecahydrochrysen-2-ol]	–	–
